Patent US8889848B2, “HCV genotype 3 replicons” (priority 2011, dated 2014)
Read-outs that look alike come from different tables or passages of the source.

Columns and labels:
Type in all cases: cell-based, HCV
[1] = system: Pi-Rluc-GT3a-P89L/A166T replicon; test: Transient replicon antiviral assay, Pi-Rluc-GT3a-P89L/A166T in 1C cells; conditions: for GT3a(P89L/A166T)/Ib EC50 Ratio: EC50 GT3a P89L/A166T divided by EC50 GT1b; for EC50: transient transfection, 1C cells, 3 days, renilla luciferase, mean of at least two experiments
Experimental: (§1) Replicon RNA were electroporated into 1C cells as described above. After transfection, cells were quickly transferred into 100 mL of pre-warmed culture medium, and 90 μl was seeded in 384-well plates at a density of 2,000 cells/well. Cells were treated with three-fold serial drug dilutions at 10 different concentrations. Cell plates were incubated at 37° C. for 3 days, after which culture medium was removed and cells were assayed for luciferase activity as markers for replicon levels. Luciferase expression was quantified using a commercial luciferase assay (Promega). Luciferase levels were converted into percentages relative to the levels in the untreated controls (defined as 100%), and data were fitted to the logistic dose-response equation y=a/[1+(x/b)^c] using XLFit4 software (IDBS, Emeryville, Calif.).
(§2) To investigate antiviral activity against genotype 3a, five different classes of HCV inhibitors were tested in a transient assay of the genotype 3a Pi-Rluc replicon: NS3 protease, NS5A, NS5B active site, NS5B non-active site, and host factor inhibitors. A standard genotype 1b Pi-Rluc replicon was tested in parallel. The transient replicon replication assays were performed in 1C cells to minimize the potential influence of host cell difference on compound antiviral activities. EC50 values against both genotype 1b and genotype 3a replicons were successfully generated for all inhibitors using a high-throughput 384-well assay measuring Rluc activity (Table 10).
(§3) Five different classes of HCV inhibitors as listed in the first column were evaluated for their antiviral activities against GT1b and GT3a Pi-Rluc replicon in a transient transfection high-throughput 384-well format by measuring renilla luciferase activity. Data presented in the table represent the mean of at least two independent experiments.

[2] = system: Pi-Rluc-GT3a-P89L/K583E replicon; test: Transient replicon antiviral assay, Pi-Rluc-GT3a-P89L/K583E in 1C cells; conditions: for GT3a(P89L/K583E)/Ib EC50 Ratio: EC50 GT3a P89L/K583E divided by EC50 GT1b; for EC50: transient transfection, 1C cells, 3 days, renilla luciferase, mean of at least two experiments
Experimental: as §1, §2, §3

[3] = system: genotype 1b Pi-Rluc replicon; test: Transient replicon antiviral assay, Pi-Rluc-GT1b in 1C cells; conditions: transient transfection, 3 days, renilla luciferase, mean of at least two experiments
Experimental: as §1, §2, §3

[4] = system: genotype 3a Pi-Rluc replicon; test: Transient genotype 3a Pi-Rluc replicon assay, summary over both GT3a replicons; conditions: for EC50: read-out: EC50 values against genotype 3a
Experimental: as §1, §2

Compound | GT3a(P89L/A166T)/Ib EC50 Ratio [1] | EC50 ([1]; Hepatitis C virus, GT3A, 72 h) [nM] | GT3a(P89L/K583E)/Ib EC50 Ratio [2] | EC50 ([2]; Hepatitis C virus, GT3A, 72 h) [nM] | EC50 [1] [nM] | EC50 [2] [nM] | EC50 [3] [nM] | EC50 ([4]; range over the two GT3a Pi-Rluc replicons) [nM] | fold less active (less potent) against genotype 3a versus genotype 1b ([4]; transient Pi-Rluc replicons) | EC50 ([3]; Hepatitis C virus, 72 h) [nM] | fold more active against genotype 3a compared with genotype 1b ([4]; transient Pi-Rluc replicons) | EC50 ([4]; Hepatitis C virus) [nM] | potency against genotype 1b and 3a replicons compared (in words) ([4]; transient Pi-Rluc replicons)
CC(C)(C)NC(=O)N[C@H](C(=O)N1C[C@H]2[C@@H]([C@H]1C(=O)NC(CC1CCC1)C(=O)C(N)=O)C2(C)C)C(C)(C)C (stereo partly shown) [Boceprevir, boceprevir] | 2.44 | 460 | 1.45 | 273 |  |  |  |  |  |  |  |  | 
COC(=O)N[C@H](C(=O)N1CC2(CC2)C[C@H]1c1nc(-c2ccc3c(c2)C(F)(F)c2cc(-c4ccc5[nH]c([C@@H]6[C@H]7CC[C@H](C7)N6C(=O)[C@@H](NC(=O)OC)C(C)C)nc5c4)ccc2-3)c[nH]1)C(C)C [GS-5885] | 22370 |  | 9758 |  | 92 | 40 | 0.0041 | 40 to 92 | approximately 10.000 fold |  |  |  | 
CNC(=O)c1c(-c2ccc(F)cc2)oc2cc(N(CCO)S(C)(=O)=O)c(C3CC3)cc12 [HCV-796] | 0.14 | 2.8 | 0.12 | 2.4 |  |  |  |  |  | 20 | ~7 fold |  | 
CC(C)OC(=O)[C@H](C)N[P@](=O)(OC[C@H]1O[C@@H](n2ccc(=O)[nH]c2=O)[C@](C)(F)[C@@H]1O)Oc1ccccc1 [GS-7977] | 0.31 |  | 0.15 |  | 12 | 5.8 | 40 |  |  |  |  |  | 
Fc1ccccc1-c1nc2ccn(Cc3ccc(-c4ccc(C(F)(F)F)cc4C(F)(F)F)nn3)cc-2n1 [GS-9190] | 17 |  | 18 |  | 42 | 46 | 3 |  | approximately 17 fold |  |  |  | 
CN(C)CCN(C)[C@H]1COc2ccccc2-c2c(C3CCCCC3)c3ccc(C(=O)O)cc3n2C1 [MK-3281] | 0.47 | 277 | 0.31 | 180 |  |  |  |  |  | 587 | about 2 fold |  | 
COC(=O)N[C@H](C(=O)N1CCC[C@H]1c1nc(-c2ccc(-c3ccc(-c4c[nH]c([C@@H]5CCCN5C(=O)[C@@H](NC(=O)OC)C(C)C)n4)cc3)cc2)c[nH]1)C(C)C [BMS-790052] | 11 | 0.31 | 15 | 0.45 |  |  |  |  | 11 fold | 0.03 |  | 0.31 to 0.45 | 
CC1=CC[C@H](C(=O)N(c2cc(C#CC(C)(C)C)sc2C(=O)O)[C@H]2CC[C@](O)(CO[C@H]3CCOC3)CC2)CC1 [GS-9669] | 61 |  | 33 |  | 230 | 125 | 3.8 |  | ~60 fold |  |  |  | 
CCc1cc(CC[C@]2(C3CCCC3)CC(O)=C(Cc3nc4nc(C)cc(C)n4n3)C(=O)O2)cc(CC)n1 [Filibuvir, filibuvir] | 17 | 2040 | 7.4 | 895 |  |  |  |  | approximately 17 fold | 121 |  |  | 
CCC[C@H](NC(=O)[C@@H]1[C@H]2CCC[C@H]2CN1C(=O)[C@@H](NC(=O)[C@@H](NC(=O)c1cnccn1)C1CCCCC1)C(C)(C)C)C(=O)C(=O)NC1CC1 [Telaprevir, telaprevir] | 1.6 | 650 | 3.27 | 1330 |  |  |  |  |  | 407 |  |  | 
C=C[C@@H]1C[C@]1(NC(=O)[C@@H]1C[C@@H]2CN1C(=O)[C@H](C(C)(C)C)NC(=O)O[C@@H]1C[C@H]1CCCCCc1nc3ccc(OC)cc3nc1O2)C(=O)NS(=O)(=O)C1CC1 [MK-5172] | 74 | 60 | 28 | 23 |  |  |  |  |  | 0.81 |  |  | 
C/C=C/C[C@@H](C)[C@@H](O)[C@H]1C(=O)N[C@@H](CC)C(=O)N(C)[C@H](SCCN(C)C)C(=O)N(C)[C@@H](CC(C)(C)O)C(=O)N[C@@H](C(C)C)C(=O)N(C)[C@@H](CC(C)C)C(=O)N[C@@H](C)C(=O)N[C@H](C)C(=O)N(C)[C@@H](CC(C)C)C(=O)N(C)[C@@H](CC(C)C)C(=O)N(C)[C@@H](C(C)C)C(=O)N1C [SCY-635] | 1.2 | 78 | 0.91 | 59 |  |  |  |  |  | 65 |  |  | equivalent potency
CC[C@@H]1C[C@]1(NC(=O)[C@@H]1C[C@@H](Oc2cc(-c3csc(NC(C)C)n3)nc3c(Cl)c(OCCN4CCOCC4)ccc23)CN1C(=O)[C@@H](NC(=O)O[C@@H]1C[C@@H]2C[C@@H]2C1)C(C)(C)C)C(=O)O [GS-9451] | 173 |  | 97 |  | 1650 | 921 | 10 |  |  |  |  |  | 
COc1ccc2c(O[C@@H]3C[C@H]4C(=O)N[C@]5(C(=O)O)C[C@H]5/C=C\CCCCC[C@H](NC(=O)OC5CCCC5)C(=O)N4C3)cc(-c3csc(NC(C)C)n3)nc2c1 [BILN-2061] | 478 | 447 | 102 | 95 |  |  |  |  |  | 0.93 |  |  | 
